In patent US7915050B2, “Regulatory genes for plant differentiation and growth, and use of the same” (National University Corporation Nagoya University, priority 2005, dated 2011):

What was measured:
[1] = target: T1, AtGID1c (Arabidopsis thaliana, UniProt Q940G6); assay: Competitive ability of GA in AtGID1-GA binding (AtGID1c)
T1 construct: made in house; host or cells: E. coli
T1 sequence (Q940G6 1-344): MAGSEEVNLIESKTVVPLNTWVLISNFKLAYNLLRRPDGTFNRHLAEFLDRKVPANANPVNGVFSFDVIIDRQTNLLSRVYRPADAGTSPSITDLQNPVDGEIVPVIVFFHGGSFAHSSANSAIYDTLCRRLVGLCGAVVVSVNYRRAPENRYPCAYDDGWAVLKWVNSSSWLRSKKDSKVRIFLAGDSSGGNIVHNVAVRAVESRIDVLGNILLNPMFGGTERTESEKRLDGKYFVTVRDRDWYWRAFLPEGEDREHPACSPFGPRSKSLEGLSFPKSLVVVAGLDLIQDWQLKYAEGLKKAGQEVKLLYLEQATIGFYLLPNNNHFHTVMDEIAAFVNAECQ
Description: In the gibberellin-binding assay, [1,2,16,17-^3H4]16,17-dihydro-GA4 was used as a labeled GA4. In vitro GA-binding assays were carried out using previous methods with some modifications (Nakajima, M. et al., Biochem. Biophys. Res. Comm. 241, 782-786 (1997)). The purified recombinant GID1 protein (400 pmol) was dissolved in 300 μl of binding buffer [20 mM Tris-HCl (pH 7.6), 5 mM 2-mercaptoethanol, and 0.1 M NaCl], and incubated with 100 μl of ^3H4-16,17-dihydroGA4 (6 pmol) for two hours at 25° C., either in the absence of non-labeled GA4 (total binding) or in the presence of 833-fold excess non-labeled GA4 (total non-specific binding). Then, 0.1 ml of the reaction mixture was loaded onto a NAP-5 column (Amersham Biosciences, Piscataway, N.J.). The eluate of the binding buffer (0.6 ml) was discarded, the subsequent eluate (0.2 ml) was collected, and the radioactivity was measured. The specific binding activity, reflecting the number of displaceable GA binding sites, was calculated by subtracting the amount of nonspecific binding from the amount of total binding. The same as above can also be carried out for other GAs.
Specifically, the coding region of the AtGID1 gene was amplified by PCR using specific primers designed based on the full-length cDNA sequence of the AtGID1 gene and having appropriate restriction sites at each end. After confirmation by sequence analysis, each cDNA fragment was ligated into pET32a vector (Novagen/Merck Biosciences, Madison, Wis., USA) or pGEX-4T-2 vector (Amersham Biosciences, Piscataway, N.J., USA; currently, a part of GE Healthcare). The production of recombinant proteins was confirmed by SDS-PAGE; vector cassettes were used as negative controls. GA binding assays were carried out similarly as described above using [1,2,16,17-^3H4]-16,17-dihydro-GA4 (4.55 TBq/mmol), which was custom-made by DuPont/NEN (Boston, Mass., USA). Non-labeled GA4 (1.25 mM) was used to measure non-specific binding. Saturation experiments for the kinetic analysis were carried out using ten concentrations of 16,17-dihydro-GA4 within the range of 25 to 1,500 nM. Competition assays were performed using [1,2,16,17-^3H4]-16,17-dihydro-GA4 at 15 nM and five concentrations of the non-labeled competitor. Recombinant RGA and GAI proteins were prepared using pET32a by a previously described method.
The ligand selectivity of each AtGID1 was examined by observing the competitive inhibition, by the addition of GA to the assay mixtures, of the binding between the recombinant proteins and tritiated 16,17-dihydro-GA4 (Table 2). The ligand selectivity was evaluated using the concentration of GA that inhibits 50% of the tracer (15 nM) binding (IC50 value).

[2] = target: T2, AtGID1b (Arabidopsis thaliana, UniProt Q9LYC1); assay: Scatchard analysis of GA binding of AtGID1b; conditions: equilibrium conditions
T2 construct: made in house; host or cells: E. coli
T2 sequence (Q9LYC1 1-358): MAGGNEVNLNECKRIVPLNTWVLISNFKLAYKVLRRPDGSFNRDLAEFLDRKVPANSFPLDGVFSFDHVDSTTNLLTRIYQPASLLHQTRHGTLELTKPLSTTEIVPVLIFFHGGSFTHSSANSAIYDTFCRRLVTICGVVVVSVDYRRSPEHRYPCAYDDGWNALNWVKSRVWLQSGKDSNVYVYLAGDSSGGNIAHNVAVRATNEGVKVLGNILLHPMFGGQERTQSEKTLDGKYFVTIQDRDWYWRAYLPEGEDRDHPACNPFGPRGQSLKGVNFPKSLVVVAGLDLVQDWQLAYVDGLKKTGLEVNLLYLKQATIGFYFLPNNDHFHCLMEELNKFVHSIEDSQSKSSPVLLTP
Description: Panels A) to C) depict the results of Scatchard plot analyses for the GA binding of AtGID1. Results for AtGID1a (A), AtGID1b (B), and AtGID1c (C) are shown. The Kd values for 16,17-dihydro-GA4 was determined by adding various concentrations of GA to the assay mixture. Standard deviation (SD) was determined from these three independent measurements. The insets show time-course characteristics for the GA binding of AtGID1 and replacement (arrow) using an excess amount of non-labeled GA4 (0.125 mM). Panels D) to F) depict the GA binding activities of AtGID1 under different pH conditions. Results for AtGID1a (D), AtGID1b (E), and AtGID1c (F) are shown. The non-specific binding activity (UB) was determined by adding 0.125 mM GA4 to the assay solution, and this was subtracted from the total binding activity (B) to determine the specific binding activity (B-UB).
Specifically, the coding region of the AtGID1 gene was amplified by PCR using specific primers designed based on the full-length cDNA sequence of the AtGID1 gene and having appropriate restriction sites at each end. […]
The kinetics, ligand selectivity, and pH dependence of GA binding for the three AtGID1s identified as described above were examined using the tritiated GA4 derivative 16,17-dihydro-GA4. […] Furthermore, the kinetics of GA binding of each AtGID1 was analyzed under equilibrium conditions of GA at various concentrations.

CC1C[C@]23C[C@H]1CCC2[C@]12CC[C@H](O)[C@](C)(C(=O)O1)[C@H]2[C@@H]3C(=O)O (stereo partly drawn) [H2-GA4, 16,17-dihydro-GA4]
relative value, taking the value for GA4 as 100 [1]: (6) % | IC50 ([1]; tracer 15 nM, mean of at least two measurements): 5000 nM | Kd [2]: 480 nM
